Experimental data: publication PMC7181201, “Dual P-Glycoprotein and CA XII Inhibitors: A New Strategy to Reverse the P-gp Mediated Multidrug Resistance (MDR) in Cancer Cells” (Molecules, 2020)
Where “and” joins values, the source holds several entries; their conditions need not be identical. Equal values may be shown once.

Key:
[1] = target: T1, P-gp (Homo sapiens, UniProt P08183); test: Rhodamine-123 uptake test on LoVo/DOX cells (flow cytometry); type: cell-based
T1 construct: doxorubicin resistant K562/DOX cell line overexpresses almost exclusively the transporter membrane protein P-gp; endogenous in cells; host or cells: K562/DOX (doxorubicin-selected human erythroleukemia cells)
Method: The selected compounds were preliminary studied at 3, 10 and 30 µM concentrations by the MTT (3-(4,5-dimethylthiazolyl-2)-2,5-diphenyltetrazolium bromide) assay to evaluate their intrinsic cytotoxicity on LoVo/DOX cell line.
(§1) An aliquot of cells (control) was incubated with the fluorochrome in the absence of inhibitors.
(§2) At the end of the uptake, cells were sedimented, washed twice in ice-cold PBS, placed in PBS on ice, and kept in the dark until flow cytometric analysis.
(§3) The histograms were generated by program GraphPad Prism 5 (GraphPad Prism software, Inc., San Diego, CA, USA); the data were obtained from the ratio between the average fluorescence intensity of the samples preincubated with the compounds under study and subsequently exposed to rhodamine, and the fluorescence of the sample exposed only to the rhodamine.

[2] = target: T2, hCA XII (Homo sapiens, UniProt O43570); test: Stopped-flow CO2 hydrase assay, hCA XII; type: biochemical; conditions: stopped flow, mean from 3 assays
T2 construct: made in house
Method: (§4) An SX.18MV-R Applied Photophysics (Oxford, UK) stopped-flow instrument was used to assay the catalytic/inhibition of various CA isozymes. […] Saturated CO2 solutions in water at 25 °C were used as a substrate. Stock solutions of inhibitors were prepared at a concentration of 10 μM (in DMSO-water 1:1, v/v) and dilutions up to 0.01 nM done with the assay buffer mentioned above. […] Inhibitor and enzyme solutions were preincubated together for 10 min at room temperature prior to the assay, in order to allow for the formation of the E–I complex. […] The inhibition constants were obtained by non-linear least-squares methods using the Cheng–Prusoff equation, as reported earlier, and represent the mean from at least three different determinations. All CA isozymes used here were recombinant proteins obtained as reported earlier by our group.

[3] = target: T1, P-gp; test: Rhodamine-123 uptake test on K562/DOX cells (flow cytometry); type: cell-based
Method: The results were expressed as the FR (fluorescence ratio), which is the ratio between the average fluorescence intensity of rhodamine in the presence and in the absence of modulators. Value 1 was attributed to the average fluorescence intensity of the samples exposed only to rhodamine.
as §1, §2, §3

[4] = system: LoVo/DOX cells; test: Enhancement of doxorubicin cytotoxicity on LoVo/DOX cells (MTT); type: cell-based, human; conditions: 72 h
Method: (§5) To evaluate the enhancement of doxorubicin toxicity in the presence of the tested compounds, the cells, in exponential growth phase, were seeded at 10^4 cells/well and solutions of either compounds or doxorubicin, or a solution of doxorubicin in combination with the compounds, were added to the wells repeated in quadruplicate. […] The MTT working solution was then added and plates were further incubated for 3 h. Following incubation cells and formazan crystals were inspected microscopically. The supernatant was then carefully removed by slow aspiration and the formazan crystals were dissolved in […] of acidified isopropanol solution. The absorbance of the solution was then read on an automated plate reader at a wavelength of 570 nm. The increase in the toxicity of doxorubicin was quantified by the ratio between the growth of the cell sample treated with IC20 of doxorubicin and that of the cell sample treated with IC20 of doxorubicin in combination with the various concentrations of the tested compounds.

[5] = target: T3, hCA IX (Homo sapiens, UniProt Q16790); test: Stopped-flow CO2 hydrase assay, hCA IX; type: biochemical; conditions: stopped flow, mean from 3 assays
T3 construct: made in house
Method: as §4

[6] = target: T4, hCA I (Homo sapiens, UniProt P00915); test: Stopped-flow CO2 hydrase assay, hCA I; type: biochemical; conditions: mean from 3 assays
T4 construct: made in house
Method: as §4

[7] = system: K562/DOX cells; test: Enhancement of doxorubicin cytotoxicity on K562/DOX cells (MTT); type: cell-based, human; conditions: 72 h
Method: as §5

[8] = target: T5, hCA II (Homo sapiens, UniProt P00918); test: Stopped-flow CO2 hydrase assay, hCA II; type: biochemical; conditions: stopped flow, mean from 3 assays
T5 construct: made in house
Method: as §4

[9] = system: K562/DOX cells; set-up: method as in PMID 30947123; conditions: cited from earlier work
[10] = system: LoVo/DOX cells; test: Doxorubicin IC50 and IC20 evaluation on LoVo/DOX cells (MTT)
Method: (§6) For the LoVo/DOX cell line, the doxorubicin growth inhibition was determined by the MTT assay and the IC50 and IC20 values were determined. Approximately 10^4 cells/well were plated onto 96-well plates and allowed to attach for 24 h before treatment with a range of drug concentrations from 3 × 10^−11 to 3 × 10^−5 M for 3 days; each concentration was repeated four times. At the end of the incubation the cells were processed according to the MTT protocol [43] and the optical density of the chromogenic product was measured at 570 nm. IC50 and IC20 values were determined graphically from relative survival curves obtained by GraphPad Prism 5 software (GraphPad, San Diego, CA, USA).
(§7) The resistance index to doxorubicin of the two resistant cell lines was obtained from the ratio between the doxorubicin IC50 (µM) values on the resistant and parental lines.

[11] = system: LoVo cells; test: Doxorubicin IC50 on parental LoVo cells (MTT); conditions: Homo sapiens, 72 h, read-out: doxorubicin IC50
Method: as §6, §7

[12] = doxorubicin 0.3 µM (IC20) + compound 3 µM
[13] = doxorubicin 0.3 µM (IC20) + compound 10 µM
[14] = doxorubicin 0.5 µM (IC20) + compound 3 µM
[15] = doxorubicin 0.5 µM (IC20) + compound 10 µM

T4 sequence (P00915 whole entry): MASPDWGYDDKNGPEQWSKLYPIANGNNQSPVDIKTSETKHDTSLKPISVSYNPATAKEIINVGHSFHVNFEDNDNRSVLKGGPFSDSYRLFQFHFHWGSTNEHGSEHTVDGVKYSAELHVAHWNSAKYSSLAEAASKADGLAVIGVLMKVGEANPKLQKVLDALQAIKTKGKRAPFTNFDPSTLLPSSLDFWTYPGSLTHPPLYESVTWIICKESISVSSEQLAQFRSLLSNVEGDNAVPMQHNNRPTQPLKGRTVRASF
T1 sequence (P08183 whole entry): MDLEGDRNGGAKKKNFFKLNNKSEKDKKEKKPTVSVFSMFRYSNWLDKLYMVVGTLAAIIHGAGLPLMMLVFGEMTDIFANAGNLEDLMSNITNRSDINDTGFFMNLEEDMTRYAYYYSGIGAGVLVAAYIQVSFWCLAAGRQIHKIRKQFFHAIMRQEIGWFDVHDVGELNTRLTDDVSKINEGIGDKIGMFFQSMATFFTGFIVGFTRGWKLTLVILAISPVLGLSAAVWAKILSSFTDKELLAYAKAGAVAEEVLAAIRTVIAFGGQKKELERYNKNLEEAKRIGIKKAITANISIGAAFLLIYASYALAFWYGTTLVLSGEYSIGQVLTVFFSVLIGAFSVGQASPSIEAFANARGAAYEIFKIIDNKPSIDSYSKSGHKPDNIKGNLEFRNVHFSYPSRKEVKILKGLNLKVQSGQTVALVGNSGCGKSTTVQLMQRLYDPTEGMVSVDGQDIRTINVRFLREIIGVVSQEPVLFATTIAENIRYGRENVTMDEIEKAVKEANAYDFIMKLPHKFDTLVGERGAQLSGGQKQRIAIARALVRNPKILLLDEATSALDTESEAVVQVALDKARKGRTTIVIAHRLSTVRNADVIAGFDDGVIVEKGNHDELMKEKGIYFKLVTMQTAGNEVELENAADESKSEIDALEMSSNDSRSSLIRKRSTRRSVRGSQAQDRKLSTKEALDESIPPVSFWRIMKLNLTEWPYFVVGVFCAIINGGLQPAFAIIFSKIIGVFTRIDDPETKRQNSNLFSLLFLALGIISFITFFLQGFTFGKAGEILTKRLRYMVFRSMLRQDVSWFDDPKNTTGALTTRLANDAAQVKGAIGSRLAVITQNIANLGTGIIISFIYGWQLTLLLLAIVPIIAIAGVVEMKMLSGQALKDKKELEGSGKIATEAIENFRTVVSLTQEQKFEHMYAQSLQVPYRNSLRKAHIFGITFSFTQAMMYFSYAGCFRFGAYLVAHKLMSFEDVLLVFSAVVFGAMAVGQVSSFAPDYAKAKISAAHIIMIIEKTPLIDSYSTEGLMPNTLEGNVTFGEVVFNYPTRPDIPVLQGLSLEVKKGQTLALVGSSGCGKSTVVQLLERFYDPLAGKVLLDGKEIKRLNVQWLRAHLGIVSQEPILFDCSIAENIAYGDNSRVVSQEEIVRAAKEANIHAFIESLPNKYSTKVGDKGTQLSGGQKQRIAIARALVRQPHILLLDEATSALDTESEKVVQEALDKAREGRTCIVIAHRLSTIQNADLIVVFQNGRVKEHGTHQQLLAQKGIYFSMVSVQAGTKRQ
T2 sequence (O43570 25-354): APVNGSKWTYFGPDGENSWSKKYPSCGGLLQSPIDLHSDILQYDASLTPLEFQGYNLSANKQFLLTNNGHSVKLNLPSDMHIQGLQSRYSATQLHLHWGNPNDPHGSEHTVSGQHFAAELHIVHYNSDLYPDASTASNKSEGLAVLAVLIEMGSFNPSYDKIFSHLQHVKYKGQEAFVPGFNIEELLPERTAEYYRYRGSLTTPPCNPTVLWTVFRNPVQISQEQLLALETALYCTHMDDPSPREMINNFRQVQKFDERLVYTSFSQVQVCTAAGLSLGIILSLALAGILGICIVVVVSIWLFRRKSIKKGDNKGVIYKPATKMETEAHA

| SMILES | FR (fluorescence ratio, Rhd 123 uptake) ([1]; compound 10 µM) | Ki [2] [nM] | FR (fluorescence ratio, Rhd 123 uptake with/without modulator) ([3]; compound 3 µM) | FR (fluorescence ratio, Rhd 123 uptake with/without modulator) ([3]; compound 30 µM) | Cell Growth (%) [4, 12] | Cell Growth (%) [4, 13] | Ki [5] [nM] | Ki [6] [nM] | Cell Growth (%) [7, 14] | Ki [8] [nM] | Cell Growth (%) [7, 15] [%] | other results |
| --- | --- | --- | --- | --- | --- | --- | --- | --- | --- | --- | --- | --- |
| COc1cc(/C=C/C(=O)OCCCCCCCN(C)CCOC(=O)COc2ccc3ccc(=O)oc3c2)cc(OC)c1OC [Compound 7, (E)-7-(methyl(2-(2-((2-oxo-2H-chromen-7-yl)oxy)acetoxy)ethyl)amino)heptyl 3-(3,4,5-trimethoxyphenyl)acrylate] | 12.60 | 9.1 | 2.08 | 4.48 | 61.0% and 61.0 ± 3.3% | 34.9% and 34.9 ± 8.1% | 29.7 | > 10000 | 78.1 ± 4.9% | > 10000 | – | – |
| COc1cc(/C=C/C(=O)OCCCN(C)CCCCCOC(=O)COc2ccc3ccc(=O)oc3c2)cc(OC)c1OC [Compound 2, (E)-3-(methyl(5-(2-((2-oxo-2H-chromen-7-yl)oxy)acetoxy)pentyl)amino)propyl 3-(3,4,5-trimethoxyphenyl)acrylate] | 10.50 | 8.9 | 1.57 | 5.81 | 82.7 ± 10.2% | 41.5% and 41.5 ± 7.3% | 47.4 | > 10000 | 85.6 ± 4.7% | > 10000 | 65.0 ± 5.2 | – |
| COc1cc(/C=C/C(=O)OCCCCCCCN(C)CCCCCCCOC(=O)COc2ccc3ccc(=O)oc3c2)cc(OC)c1OC [Compound 8, (E)-7-(methyl(7-(2-((2-oxo-2H-chromen-7-yl)oxy)acetoxy)heptyl)amino)heptyl 3-(3,4,5-trimethoxyphenyl)acrylate] | 9.90 | 7.1 | 2.33 | 4.15 | 68.0% and 68.0 ± 2.9% | 32.2% and 32.2 ± 10.7% | 24.2 | > 10000 | 82.0 ± 5.9% | > 10000 | – | – |
| COc1cc(/C=C/C(=O)OCCCCCCCN(C)CCOC(=O)c2ccc(S(N)(=O)=O)cc2)cc(OC)c1OC [Compound 21, (E)-2-(methyl(7-((3-(3,4,5-trimethoxyphenyl)acryloyl)oxy)heptyl)amino)ethyl 4-sulfamoyl benzoate] | – | 35.2 | 1.30 | 3.70 | 82.0 ± 2.7% | 59.0 ± 3.3% | 68.4 | 533 | 78.8 ± 10.2% | 48.9 | 68.7 ± 3.6 | FR (fluorescence ratio, Rhd 123 uptake) ([1]; compound 3 µM): negligible |
| COc1ccc(CCN(C)CCCC(C#N)(c2ccc(OC)c(OC)c2)C(C)C)cc1OC (stereo not drawn) [Ver, verapamil, reference compound] | – | – | – | – | 54.0 ± 0.06% | 51.0 ± 0.09% | – | – | 69.0 ± 0.03% | – | 62.0 ± 0.1 | Cell Growth (%) ([4]; doxorubicin 0.3 µM (IC20) + compound 10 µM, listed as verapamil): 51.0% |
| COc1cc(/C=C/C(=O)OCCCCCCN(C)CCCOC(=O)COc2ccc3ccc(=O)oc3c2)cc(OC)c1OC [Compound 5, (E)-6-(methyl(3-(2-((2-oxo-2H-chromen-7-yl)oxy)acetoxy)propyl)amino)hexyl 3-(3,4,5-trimethoxyphenyl)acrylate] | 6.30 | 6.4 | 3.67 | 5.85 | 58.0% and 58.0 ± 2.4% | 51.0% and 51.0 ± 1.9% | 26.7 | > 10000 | 51.7% and 51.7 ± 3.0% | > 10000 | – | – |
| COc1cc(C(=O)OCCCCCCCN(C)CCOC(=O)c2ccc(S(N)(=O)=O)cc2)cc(OC)c1OC [Compound 25, 7-(methyl(2-((4-sulfamoylbenzoyl)oxy)ethyl)amino)heptyl 3,4,5-trimethoxybenzoate] | – | 8 | 1.44 | 3.50 | 81.7 ± 2.0% | – | 117 | 42.7 | 80.3 ± 5.9% | 90.2 | 76.0 ± 3.7 | FR (fluorescence ratio, Rhd 123 uptake) ([1]; compound 3 µM): negligible |
| COc1cccc2c1C(=O)c1c(O)c3c(c(O)c1C2=O)C[C@@](O)(C(=O)CO)C[C@@H]3O[C@H]1C[C@H](N)[C@H](O)[C@H](C)O1 [doxo, doxorubicin] | – | – | – | – | – | – | – | – | – | – | – | IC50 ([9]; K562/DOX cells ref 38, read-out: doxorubicin IC50): 2470 ± 250 nM; IC20 ([9]; K562/DOX cells, extrapolated from earlier cytotoxicity curves ref 38, read-out: doxorubicin IC20): 500 nM; resistance index to doxorubicin (IC50 resistant/parental) ([9]; K562/DOX vs K562 ref 38): 73; IC50 ([10]; Homo sapiens, LoVo, 72 h, read-out: doxorubicin IC50): 850 ± 84 nM; IC20 ([10]; Homo sapiens, LoVo, read-out: doxorubicin IC20): 300 nM; resistance index to doxorubicin (IC50 resistant/parental) ([10]; LoVo/DOX vs LoVo): 13.5; activity at 0.3 µM ([4]; Homo sapiens, doxorubicin 0.3 µM alone, read-out: Cell Growth (%)): 80 ± 2.5%; IC50 [11]: 63 ± 6.6 nM; activity at 0.5 µM ([7]; Homo sapiens, doxorubicin 0.5 µM alone, read-out: Cell Growth (%)): 80 ± 3.6% |
| COc1cc(/C=C/C(=O)OCCCCCCCN(C)CCCCCCCOC(=O)c2ccc(S(N)(=O)=O)cc2)cc(OC)c1OC [Compound 22, (E)-7-(methyl(7-((3-(3,4,5-trimethoxyphenyl)acryloyl)oxy)heptyl)amino)heptyl 4-sulfamoyl benzoate] | – | 96.7 | 2.85 | 3.20 | – | – | 172 | 73.7 | – | 445 | – | – |
| CN(CCCCCCCOC(=O)c1c2ccccc2cc2ccccc12)CCOC(=O)COc1ccc2ccc(=O)oc2c1 [Compound 14, 7-(methyl(2-(2-((2-oxo-2H-chromen-7-yl)oxy)acetoxy)ethyl)amino)heptyl anthracene-9-carboxylate] | – | 42.9 | 1.25 | 4.22 | – | – | 126 | > 10000 | – | > 10000 | – | – |
| CN(CCCCCCCOC(=O)c1c2ccccc2cc2ccccc12)CCOC(=O)c1ccc(S(N)(=O)=O)cc1 [Compound 28, 7-(methyl(2-((4-sulfamoylbenzoyl)oxy)ethyl)amino)heptyl anthracene-9-carboxylate] | – | 23.5 | 1.45 | 4.25 | – | – | 20.6 | 238 | – | 475 | – | – |
| CN(CCCCCOC(=O)c1ccc(S(N)(=O)=O)cc1)CCCOC(=O)c1c2ccccc2cc2ccccc12 [Compound 26, 3-(methyl(5-((4-sulfamoylbenzoyl)oxy)pentyl)amino)propyl anthracene-9-carboxylate] | – | 23.4 | 2.10 | 4.45 | 82.0 ± 2.0% | 58.2 ± 5.9% | 241 | 339 | 77.9 ± 6.1% | 81.2 | 74.0 ± 2.6 | FR (fluorescence ratio, Rhd 123 uptake) ([1]; compound 3 µM): negligible |
